Test: Biochemical Assay: Active Moz protein was expressed as N-terminal fusion protein with a His6 tag in BL21 E. coli cells. Protein purification was performed via nickel-immobilized metal ion affinity chromatography followed by gel filtration. […] The reactions were performed in assay buffer (100 mM Tris-HCl, pH 7.8, 15 mM NaCl, 1 mM EDTA, 0.01% Tween-20, 1 mM Dithiothreitol, and 0.02% m/v chicken egg white albumin). Reactions were set up with 0.4 μM Acetyl coenzyme A (AcCoA), 50 nM N-terminal histone H4 peptide (sequence […]-GGK-biotin), 10 nM MOZ enzyme, and an acetyl-lysine specific antibody (final dilution 1:10000). 11-point dilution series of the compounds of the invention were prepared in DMSO; a volume of 100 nL was transferred using a pin tool into assay plates containing substrates, before adding enzyme to start the reaction. Positive (no compound) and negative (AcCoA omitted) control reactions were included on the same plates and received the same amount of DMSO as the compound treated wells. After adding all reagents, the plates were sealed with adhesive seals and incubated for 90 minutes at room temperature. An additional 4 μL of assay buffer containing AlphaScreen® Protein A acceptor beads and Streptavidin donor beads (PerkinElmer, Waltham, Mass.) to a final concentration of 4 μg/mL was then added. […]

IC50 [µM] | SMILES
13.1 | O=C(NNS(=O)(=O)c1ccc2ccccc2c1)c1cccc(-c2cccnc2)c1
0.839 | O=C(NNS(=O)(=O)c1ccccc1F)c1cc(-c2ccc(F)cc2)ccc1F

Source: ChEMBL document CHEMBL5728088, “Aryl sulfonohydrazides” (2020)
